These results are taken from paper PMC8226672, “Trimethoxylated Halogenated Chalcones as Dual Inhibitors of MAO-B and BACE-1 for the Treatment of Neurodegenerative Disorders” (Pharmaceutics, 2021).

A word on the Papp: it is the rate of passage across a membrane or cell layer, normalised by area and donor concentration. The term IC50 denotes the midpoint of a concentration-inhibition curve. A word on the Ki: it is a measure of affinity in units of concentration, obtained from inhibition or displacement.

Values after ≈ are worked out from the molar mass of the structure shown. Where two headings read alike, the source gives them in different places.

The nature of data set [1]: Parallel artificial membrane permeability assay (PAMPA) for BBB permeability.
From the text: (§5) The CNS bioavailability of the molecules was confirmed by a parallel artificial membrane permeability assay (PAMPA) by Di et al. [61].
Data set [2] has as its target T1, MAO-B (Homo sapiens, UniProt P27338).
T1 sequence (P27338 1-520): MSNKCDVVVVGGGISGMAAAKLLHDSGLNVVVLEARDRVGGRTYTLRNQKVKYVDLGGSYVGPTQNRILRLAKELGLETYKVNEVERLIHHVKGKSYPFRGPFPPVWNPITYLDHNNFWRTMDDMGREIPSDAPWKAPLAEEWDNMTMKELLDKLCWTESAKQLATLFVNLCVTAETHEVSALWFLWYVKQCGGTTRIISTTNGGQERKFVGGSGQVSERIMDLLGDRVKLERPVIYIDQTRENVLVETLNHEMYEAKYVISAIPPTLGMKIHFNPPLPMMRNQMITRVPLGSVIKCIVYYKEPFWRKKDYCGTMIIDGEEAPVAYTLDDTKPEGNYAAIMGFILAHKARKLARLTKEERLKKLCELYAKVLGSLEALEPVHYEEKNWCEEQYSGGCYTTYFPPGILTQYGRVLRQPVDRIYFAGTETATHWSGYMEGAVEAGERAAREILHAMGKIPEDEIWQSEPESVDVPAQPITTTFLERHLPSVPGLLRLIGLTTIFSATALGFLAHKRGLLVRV
Briefly: MAO-B inhibition (recombinant enzyme, benzylamine substrate). Type of data set: biochemical. The note with it: for remaining activity at 10 µM: read-out: Residual Activity (%) MAO-B; for SI (selectivity index): for MAO-B as compared with MAO-A; for IC50: reference compounds after preincubation with enzymes for 30 min. The method, then: (§1) MAO events were assessed with recombinant MAO-A and MAO-B, as well as the substrates kynuramine (0.06 mM) and benzylamine (0.3 mM). […] The IC50 value of CH5 for BACE-1 was also analyzed.
(§2) The inhibitory actions of the six molecules against MAO-A, MAO-B, and BACE-1 were first tested at 10 µM. Initially, the IC50 values of the compounds for MAOs were calculated.

For a further data set, the target named is T2, β-secretase (BACE-1) (Homo sapiens, UniProt P56817).
T2 construct: purchased
Kind of data set: BACE-1 inhibition (β-secretase assay kit, fluorescence). Type of data set: biochemical. The note with it: for remaining activity at 10 µM: read-out: Residual Activity (%) BACE-1; for IC50: reference compounds after preincubation with enzymes for 30 min. As for the experimental part: as §1, §2

Another data set deals with T3, recombinant MAO-A (Homo sapiens, UniProt P21397).
T3 sequence (P21397 1-527): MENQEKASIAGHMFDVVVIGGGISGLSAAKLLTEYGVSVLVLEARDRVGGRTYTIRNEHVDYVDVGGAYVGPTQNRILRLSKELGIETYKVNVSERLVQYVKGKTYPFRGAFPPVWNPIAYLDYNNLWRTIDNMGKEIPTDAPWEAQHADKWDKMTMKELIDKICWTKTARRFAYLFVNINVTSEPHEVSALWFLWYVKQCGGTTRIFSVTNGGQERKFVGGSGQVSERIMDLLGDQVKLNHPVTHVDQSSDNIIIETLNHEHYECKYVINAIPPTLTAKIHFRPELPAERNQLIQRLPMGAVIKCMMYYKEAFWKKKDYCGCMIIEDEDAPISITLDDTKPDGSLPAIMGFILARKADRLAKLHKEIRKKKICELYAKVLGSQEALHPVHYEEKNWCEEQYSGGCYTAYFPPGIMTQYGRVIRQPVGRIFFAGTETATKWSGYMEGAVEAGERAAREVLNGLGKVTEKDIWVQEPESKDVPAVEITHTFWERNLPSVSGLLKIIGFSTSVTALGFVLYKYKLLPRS
Briefly: MAO-A inhibition (recombinant enzyme, kynuramine substrate). The note with it: for remaining activity at 10 µM: read-out: Residual Activity (%) MAO-A; for IC50: reference compounds after preincubation with enzymes for 30 min. The format is biochemical. The method, then: as §1, §2

Another data set concerns Vero cells. Kind of data set: ROS assay in H2O2-treated Vero cells. The format is cell-based, African Green Monkey. The note with it: Vero cells treated with H2O2; compounds at IC50 conc. (CH4 198.5 µg/mL, CH5 126.4 µg/mL). The source says: (§3) The lead molecules CH4 and CH5 in the current series were further evaluated for their cytotoxic nature and ROS scavenging ability by the previously reported procedure (Supplementary Material).
Our next attempt was to study the effect of CH4 and CH5 on inhibiting the excess reactive oxygen species (ROS) involved in the pathogenesis of neurodegenerative diseases. This ROS causes neuronal damage via oxidative damage in the brain during neurodegenerative diseases. We examined the intracellular ROS generation on Vero cell cultures after exposure to exogenous H2O2. […] Based on this observation, it is understood that the disruption of the balance between pro-oxidant and antioxidant levels can be retained by CH4 and CH5 at IC50 concentrations. […]
h. The end point was determined by the purple precipitation which was clearly seen under an inverted microscope. At the end, the medium along with MTT (220 µL) were used for the aspiration of the wells and later washed with 1X PBS (200 µL). […] The absorbance at 570 nm was measured using a micro plate reader (Thermo Fisher Scientific, USA). The IC50 value and the percentage cell viability was calculated using GraphPad Prism 8.0 software (USA). […]
(§4) DMEM medium and incubated at 37°C for 24 h. […] After the incubation period, the cells were treated with 100 µM/mL of 30% H2O2 and the production of ROS was evaluated immediately by fluorescence imaging system (ZOE, BIO-

In data set [3] the target is T1, MAO-B. Briefly: MAO-B kinetic study (Lineweaver–Burk and secondary plots). The settings on record: for Type of MAO-B inhibition: Lineweaver–Burk plots; for Ki: secondary plots of slopes vs. inhibitor concentrations. Type of data set: biochemical. The method, then: MAO events were assessed with recombinant MAO-A and MAO-B, as well as the substrates kynuramine (0.06 mM) and benzylamine (0.3 mM). The kinetics of MAO-B were analyzed under 2.4 × Km (i.e., 0.051 mM) of benzylamine. BACE-1 was measured using a β-secretase (BACE-1) assay kit at 320 nm for excitation and 405 nm for emission using a fluorescence spectrometer. […] The IC50 value of CH5 for BACE-1 was also analyzed.
The inhibitory actions of the six molecules against MAO-A, MAO-B, and BACE-1 were first tested at 10 µM. Initially, the IC50 values of the compounds for MAOs were calculated. At three inhibitory concentrations and five substrate concentrations, kinetic tests were conducted on CH4 and CH5, which inhibited MAO-B most potently.
Kinetic experiments were carried out at five concentrations of the substrates and three inhibitor concentrations.

Data set [4] can be described thus: In vitro toxicity, MTT cell viability assay. Type of data set: cell-based. The note with it: African green monkey; for IC50 at 48 h: Vero cells (African green monkey kidney cell line), 1 to 500 µg/mL; for viability at 48 h: Vero cells (kidney cell line), read-out: Percentage of viable cells. The method, then: as §3
An in vitro toxicity evaluation of CH4 and CH5 was carried out using an MTT assay. We used the African Green Monkey kidney cell line (Vero) as a valuable in vitro model for basal toxicity studies. To check the toxicity of the tested compounds, the Vero cell line was incubated with different concentrations of CH4 and CH5 (1 to 500 µg/mL), and the relative cell viability was measured after 48 h. […] The result of the cell viability assay was represented as a dose–response curve using the GraphPad Prism 6.0 software (USA). […] The reduction in cell number and also the membrane damage were very evident in treatment with CH4 and CH5 at IC50 and higher concentrations, as analyzed by phase-contrast microscope. These two experiments strongly support that CH4 and CH5 are one hundred times safer than the effective concentration of one micromolar (Figure 3C and Figure 4C). […]
1.2. Cytotoxicity Studies
The cell line of Vero (African green monkey kidney cells) was procured from NCCS, Pune and were grown in liquid medium (DMEM) containing, 100 ug/mL penicillin, 100 µg/mL streptomycin, and 10% Fetal Bovine Serum (FBS) and preserved under an atmosphere of 5% CO2 at 37 °C. The CH4 and CH5 sample was assayed for in vitro cytotoxicity by MTT assay using the cultured Vero cells. Briefly, the cultured Vero cells were produced by cell dissociation with trypsin (trypsinization), collectively in a 15 mL tube. At a density of 1×10^5 cells/mL cells/well (200 µL) the cells were plated for 24-48 hour at 37°C into 96-well tissue culture plate in DMEM medium containing 10 % FBS and 1% antibiotic solution. The wells were washed with sterile Phosphate buffered saline and further allowed to react with varying concen-trations of the CH4 and CH5 sample in a serum free DMEM medium. The samples were triplicated and the cells were kept for incubation at 37°C for 24 h in a humidified 5% CO2 incubator. MTT (20 µL of 5 mg/mL) was added in-to each well after the incubation and the cells were incubated for another 2–4 […]
h. The end point was determined by the purple precipitation which was clearly seen under an inverted microscope. […] The absorbance at 570 nm was measured using a micro plate reader (Thermo Fisher Scientific, USA). The IC50 value and the percentage cell viability was calculated using GraphPad Prism 8.0 software (USA). […]
as §4

For data set [5], the target named is T1, MAO-B. Kind of data set: MAO-B inhibitor reversibility analysis by dialysis. The settings on record: for Relative activity, dialyzed (AD): after dialysis; for Relative activity, dialyzed (AD) / Relative activity, undialyzed (AU): CH4 1.68 µM, CH5 0.92 µM, lazabemide […], pargyline 0.28 µM; for Reversibility of MAO-B inhibition: dialysis; for Relative activity, undialyzed (AU): preincubation 30 min.
Method: Reversibility patterns were analyzed by comparing the activities of dialyzed (AD) and undialyzed (AU) samples [58].
The relative activities for undialyzed (AU) and dialyzed (AD) samples were compared to determine the reversibility patterns.

The conditions of data set [6]: PAMPA. A general note: In PAMPA a lipid-coated filter parts donor from acceptor wells.
From the text: as §5

T2 sequence (P56817 46-501): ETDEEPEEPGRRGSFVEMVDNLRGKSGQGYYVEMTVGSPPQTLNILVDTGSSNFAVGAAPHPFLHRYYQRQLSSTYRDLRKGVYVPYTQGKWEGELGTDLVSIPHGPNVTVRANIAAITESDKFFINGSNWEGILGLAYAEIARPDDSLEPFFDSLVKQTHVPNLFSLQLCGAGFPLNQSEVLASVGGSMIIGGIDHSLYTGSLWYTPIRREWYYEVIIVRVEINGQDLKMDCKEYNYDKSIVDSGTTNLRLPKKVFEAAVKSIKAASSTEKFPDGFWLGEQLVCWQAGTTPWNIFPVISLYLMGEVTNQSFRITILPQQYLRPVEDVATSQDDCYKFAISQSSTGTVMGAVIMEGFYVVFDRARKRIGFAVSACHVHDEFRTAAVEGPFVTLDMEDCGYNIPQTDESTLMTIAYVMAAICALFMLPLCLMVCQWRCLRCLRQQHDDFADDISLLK

The molecule `COc1cc(OC)c(C(=O)/C=C/c2ccc(Br)cc2)c(OC)c1` [CH2, (E)-3-(4-bromophenyl)-1-(2,4,6-trimethoxyphenyl)prop-2-en-1-one] came in with a Papp in data set [1] of 14.1 ± 0.8 ×10⁻⁶ cm/s. Besides, the figures for the remaining activity at 10 µM on MAO-B [2], at β-secretase (BACE-1) and on recombinant MAO-A were 84.3 ± 3%, 57.2 ± 0.46% and 92.4 ± 1.1%, respectively.

In the case of `COc1ccc(C(=O)/C=C/c2ccc(Cl)cc2)c(OC)c1OC` [CH4, (E)-3-(4-chlorophenyl)-1-(2,3,4-trimethoxyphenyl)prop-2-en-1-one], in the data set on Vero cells, the “Effect on ROS levels” value was “decrease in ROS levels”. The molecule further had an apparent permeability (Papp) in [1] of 14.6 ± 0.26 ×10⁻⁶ cm/s. Moreover, at MAO-B [2], the “SI (selectivity index)” value was 15.1 and the IC50 was found to be 0.84 ± 0.025 µM. Moreover, on MAO-B [3], the “Type of MAO-B inhibition” value is recorded as “competitive inhibitors” and the Ki turned out to be 0.68 ± 0.17 µM. In [4], this molecule yielded an IC50 at 48 h of 198 µg/mL (≈ 596 µM). Further, the viability at 48 h in data set [4] (up to 200 µg/mL) is more than 90%. At β-secretase (BACE-1), the remaining activity at 10 µM was found to be 54.3 ± 2.2% and the IC50 stood at 13.6 ± 0.094 µM. At MAO-B [5], the “Relative activity, dialyzed (AD)” value worked out at 96.9%; the “Reversibility of MAO-B inhibition” value is recorded as “reversible inhibitors”; the “Relative activity, undialyzed (AU)” value stood at 30.9%. Also, at recombinant MAO-A, the remaining activity at 10 µM is 63.7 ± 1.02% and the IC50 turned out to be 12.7 ± 0.23 µM.

Take `COc1cc(OC)c(C(=O)/C=C/c2ccc(F)cc2)c(OC)c1` [CH3, (E)-3-(4-fluorophenyl)-1-(2,4,6-trimethoxyphenyl)prop-2-en-1-one]: in [1], the Papp turned out to be 15.3 ± 0.71 ×10⁻⁶ cm/s. Further, the remaining activity at 10 µM came out at 75.4 ± 0.27% on MAO-B [2], 59.7 ± 0.077% at β-secretase (BACE-1) and 94.9 ± 7.19% at recombinant MAO-A.

With `COc1ccc(C(=O)/C=C/c2ccc(Br)cc2)c(OC)c1OC` [CH5, (E)-3-(4-bromophenyl)-1-(2,3,4-trimethoxyphenyl)prop-2-en-1-one], the “Effect on ROS levels” value in the data set with Vero cells was “decrease in ROS levels”. The molecule also registered a Papp in [1] of 15.7 ± 0.22 ×10⁻⁶ cm/s. Besides, on MAO-B [2], the “SI (selectivity index)” value worked out at 31.3 and the IC50 turned out to be 0.46 ± 0.12 µM. At MAO-B [3], the “Type of MAO-B inhibition” value is “competitive inhibitors” and the affinity corresponds to a Ki of 0.31 ± 0.014 µM. For the same molecule, in data set [4], the IC50 at 48 h was determined as 126 µg/mL (≈ 335 µM). In data set [4] (up to 100 times the effective concentration), the viability at 48 h is more than 90%. Besides, at β-secretase (BACE-1), the remaining activity at 10 µM is 64.3 ± 0.74% and the 50% inhibitory concentration (IC50) was determined as 19.8 ± 0.12 µM. Moreover, on MAO-B [5], the “Relative activity, dialyzed (AD)” value was 73.8%; the “Reversibility of MAO-B inhibition” value was “reversible inhibitors”; the “Relative activity, undialyzed (AU)” value turned out to be 37.2%. Besides, at recombinant MAO-A, the remaining activity at 10 µM came out at 66.7 ± 3.96% and the IC50 worked out at 14.4 ± 1.1 µM.

In turn, `COc1cc(OC)c(C(=O)/C=C/c2ccc(Cl)cc2)c(OC)c1` [CH1, (E)-3-(4-chlorophenyl)-1-(2,4,6-trimethoxyphenyl)prop-2-en-1-one] gave a Papp in [1] of 13.2 ± 0.33 ×10⁻⁶ cm/s. The remaining activity at 10 µM at MAO-B [2] was 70.7 ± 2.16%; on β-secretase (BACE-1) it was 61.3 ± 0.078%; at recombinant MAO-A it was 90.1 ± 7.51%.

As to `CN1C(C(=O)Nc2ccccn2)=C(O)c2ccccc2S1(=O)=O` [Piroxicam], the “Prediction (CNS permeability class)” value in data set [6] is reported as “CNS+/−”.

On to `COc1ccc(C(=O)/C=C/c2ccc(F)cc2)c(OC)c1OC` [CH6, (E)-3-(4-fluorophenyl)-1-(2,3,4-trimethoxyphenyl)prop-2-en-1-one], for which, in data set [1], the apparent permeability (Papp) was found to be 15.2 ± 0.26 ×10⁻⁶ cm/s. The remaining activity at 10 µM at MAO-B [2] is 19.6 ± 2.17%; at β-secretase (BACE-1), 66.7 ± 0.45%; at recombinant MAO-A, 92.1 ± 0.75%. Moreover, at MAO-B [2], the IC50 was 4.17 ± 0.23 µM.
